Two compounds from patent US7531500B2, “Preventing airway mucus production by administration of EGF-R antagonists” (The Regents of the University of California, priority 1998, dated 2009) can be followed below.

Experiment [1] relates to NCI-H292 cells. Briefly: Immunoassay of MUC5AC protein in NCI-H292 cells (Example 2). It is filed as cell-based, human. How it is done: Cell Culture. NCI-H292 cells, a human pulmonary mucoepidermoid carcinoma cell line, were grown in RPMI 1640 medium containing 10% fetal bovine serum, penicillin (100 U/ml), streptomycin (100 μg/ml) and Hepes (25 mM) at 37° C. in a humidified 5% CO2, water-jacketed incubator. Either 6-well culture plates or 8-chamber slides were used to culture the cells. […] The cells were then washed and incubated with fresh medium alone. Experiments were terminated at preselected times (for mRNA, 6 h and 12 h; for protein, 24 h). As controls, cells were incubated with medium alone for same time periods. […] In inhibition studies with blocking antibodies to EGF-R ligands, the supernatants were pretreated with anti-TGFα antibody (Calbiochem) or anti-EGF antibody for 30 min and then added to NCI-H292 cells. The role of oxygen free radicals was examined using scavengers of oxygen free radical DMSO (1%, Sigma), 1,3-dimethyl-2-thiourea (DMTU, 50 mM, Sigma), or superoxide dismutase (SOD, 300 U/ml, Sigma).
Preparation of Cigarette Smoke Solution. Research cigarettes (code2R1, produced for the University of Kentucky Tobacco and Health Research Foundation) were used in the study. Cigarette smoke solution was prepared as previously described (Dusser et al. (1989) J. Clin. Invest. 84:900-906). In brief, cigarette smoke was withdrawn into a polypropylene syringe (35 ml) at a rate of one puff/min (10 times) and bubbled slowly into 20 ml of RPM11640 containing 50 mM Hepes buffer. The smoke solution was then titrated to pH 7,4 and used immediately after preparation.
Immunoassay of MUC5AC Protein. MUC5AC protein was measured as described above. In brief, cell lysates were prepared with PBS at multiple dilutions, and 50 μl of each sample was incubated with bicarbonate-carbonate buffer (50 μl) at 40° C. in a 96-well plate (Maxisorp Nunc, Fisher Scientific, Santa Clara, Calif.), until dry. Plates were washed three times with PBS and blocked with 2% BSA (fraction V, Sigma) for 1 h at room temperature. Plates were again washed three times with PBS and then incubated with 50 μl of mouse monoclonal MUC5AC antibody (1:100) that was diluted with PBS containing 0.05% Tween 20. After 1 h, the wells were washed three times with PBS, and 100 μl horseradish peroxidase-goat anti-mouse IgG conjugate (1:10,000, Sigma) was dispensed into each well. After 1 h, plates were washed three times with PBS. Color reaction was developed with TMB peroxidase solution (Kirkegaard & Perry Laboratories, Gaithersburg, Md.) and stopped with 2N H2SO4. Absorbance was read at 450 nm.

Experiment [2] has as its system NCI-H292 cells. Briefly: In situ hybridization for MUC5AC gene in NCI-H292 cells (Example 2). It is filed as cell-based, human. The settings on record: within 12 h. How it is done:
Cell Culture. NCI-H292 cells, a human pulmonary mucoepidermoid carcinoma cell line, were grown in RPMI 1640 medium containing 10% fetal bovine serum, penicillin (100 U/ml), streptomycin (100 μg/ml) and Hepes (25 mM) at 37° C. in a humidified 5% CO2, water-jacketed incubator. Either 6-well culture plates or 8-chamber slides were used to culture the cells. When confluent, cells were incubated for 1 h with neutrophils (10^6 cells/ml) alone, TNFα alone (recombinant human TNFα, 20 ng/ml, Genzyme, Cambridge, Mass.), IL-8 (recombinant human IL-8, 10^−8 M, Genzyme) alone, fMLP (10^−8 M, Sigma, St. Louis, Mo.) alone, TNFα plus neutrophils, IL-8 plus neutrophils, fMLP plus neutrophils, hydrogen peroxide (H2O2, 200 μM), cigarette smoke solution or TGFα (recombinant human TGFα, 0.1-25 ng/ml, Calbiochem, San Diego, Calif.). The cells were then washed and incubated with fresh medium alone. Experiments were terminated at preselected times (for mRNA, 6 h and 12 h; for protein, 24 h). As controls, cells were incubated with medium alone for same time periods. […] NCI-H292 cells were incubated for 1 h with either neutrophils that had been incubated with TNFα (20 ng/ml) for 1 h and then washed with sterile PBS to avoid contamination with the supernatant (e.g., molecules released from neutrophils), or the NCI-H292 cells were incubated with supernatant only. […]

The target in experiment [3] is EGFR (Homo sapiens, UniProt P00533). Briefly: Immunoprecipitation of EGF-R and immunoblotting for tyrosine phosphorylation in NCI-H292 cells. It is filed as cell-based. Also on record: These cells express EGF-R constitutively; endogenous in cells; host or cells: NCI-H292 (human pulmonary mucoepidermoid carcinoma). The settings on record: within 15 min of stimulus. The protocol: Immunoprecipitation for EGF-R Protein and Immunoblotting for Tyrosine Phosphorylation. Cells were serum-starved for 24 h and then stimulated with TGFα, H2O2, or the supernatant of activated neutrophils for 15 min. After stimulation, cells were lysed and incubated for 30 min in an orbital shaker at 4° C. To remove insoluble material, cell lysates were centrifuged at 14,000 rpm for 5 min at 4° C. Aliquots of supernatants containing equal amounts of protein were immunoprecipitated with anti-EGF receptor antibody (polyclonal, Ab4, Calbiochem) and 20 μl of protein A-agarose (Santa Cruz) for 2 h at 4° C. Precipitates were washed three times with 0.5 ml of lysis buffer, suspended in SDS sample buffer, and boiled for 5 min. Proteins were separated by SDS-PAGE in 8.0% acrylamide gel. The resulting gel was equilibrated in the transfer buffer: 25 mM Tris-HCl, 192 mM glycine, 20% (vol/vol) methanol, pH 8.3. The proteins were then transferred electrophoretically to nitrocellulose membranes (0.22 μm), blocked with 5% fat-free skimmed milk in PBS containing 0.05% Tween 20 overnight and then incubated with monoclonal anti-phosphotyrosine antibody (1:100,Santa Cruz) for 1 h. Bound antibody was visualized according to a standard protocol for the avidin-biotin-alkaline phosphatase complex method (ABC kit, Vector Laboratories).
For orientation: A western blot detects proteins with antibodies after separation by electrophoresis.

In experiment [4] the test system is NCI-H292 cells. Briefly: Northern analysis for MUC5 gene expression in NCI-H292 cells. The settings on record: EGF or TGFα 25 ng/ml, TNFα 20 ng/ml; 12 h, 24 h. It is filed as cell-based, human. The protocol: (§1) Cell culture. A human pulmonary mucoepidermoid carcinoma cell line, NCI-H292 cells, were grown in RPMI11640 medium containing 10% fetal bovine serum, penicillin (100 U/ml), streptomycin (100 μg/ml) at 37° C. in a humidified 5% CO2 water-jacketed incubator. […] In inhibition studies with an EGF-R tyrosine kinase inhibitor, BIBX1522 (10 μg/ml, generously provided by Boehringer Ingelheim Inc., Ingelheim, Germany), cells were pretreated with BIBX1522 30 min before adding growth factors. After incubation, cells grown in a T-75 flask were used for total RNA extraction or protein extraction, and 8-chamber slides were used for Alcian blue/PAS-staining to visualize mucins.

The test system of experiment [5] is NCI-H292 cells. Briefly: Alcian blue/PAS staining of NCI-H292 cells for mucin glycoproteins. The settings on record: TNFα 20 ng/ml; EGF, TGFα each 25 ng/ml. The class given is cell-based, human. How it is done: as §1
Experiment [6] deals with pathogen-free rats. Briefly: Goblet cell production in pathogen-free rats after tracheal instillation of TNFα and EGF-R ligands. The class given is in vivo, rat. The settings on record: intratracheal 600 ng, alone. How it is done: Healthy rats. Rats were anesthetized with methohexital sodium (Brevital sodium, 50 mg/kg, i.p.; Eli Lilly & Co., Indianapolis, Ind.) and allowed to breathe spontaneously. […] In each study, sterile PBS (100 μl) was instilled into the trachea as control. […] Rats were pretreated with BIBX1522 (3, 10 or 30 mg/kg, i.p.), 1 h before and 24 h after instillation of TGFα. The trachea and lungs were removed for examination 48 h after the instillation of TGFα.
Tissue preparation. At preselected times during anesthesia, the systemic circulation was perfused with 1% paraformaldehyde in DEPC-treated PBS at a pressure of 120 mmHg. The trachea was then removed and placed in 4% paraformaldehyde for 24 h. After fixation, trachea and lungs were embedded in either JB-4 plus monomer solution A for cell analysis or O.C.T. compound (Sakura Finetek U.S.A., Inc., Torrance, Calif.) for immunohistochemistry and in situ hybridization. The embedded tissues were cut as cross sections ([…] thick) and placed on slides.
Cell analysis. We counted the total number of epithelial cells by counting epithelial cell nuclei over 2 mm of the basal lamina with an oil immersion objective lens (×1000 magnification). The linear length of the basal lamina under each analyzed region of epithelium was determined by tracing the contour of the digitized image of the basal lamina. After instillation of stimuli, “developing” goblet cells form. These cells have Alcian blue/PAS-positive granules, but the size of granules is small, and the number of cytoplasmic granules is few. We call these “developing” goblet cells “pre-goblet cells”, a stage before cells become mature goblet cells. Goblet cells are tall, cuboidal, goblet to low columnar in shape, with abundant Alcian blue/PAS-stained granules filling most of the cytoplasm between the nucleus and the luminal surface. Pre-goblet cells are defined as cells with smaller mucus-stained areas (<1/3 height in epithelium from basement membrane to luminal surface) or with sparsely and lightly Alcian blue/PAS-stained, small granules. Ciliated cells are recognized by their ciliated borders, lightly stained cytoplasm, and large round nuclei. Non-granulated secretory cells are columnar in shape and extend from the lumen to the basal lamina. The cytoplasm stains light pink color, and a few tiny PAS-positive and Alcian blue-negative granules are observed in the cytoplasm. Basal cells are small flattened cells with a large nucleus, located just above the basal lamina but not reaching the airway lumen.
Quantification of goblet cell production. Goblet cell production, was determined by the volume density of Alcian blue/PAS-stained mucosubstances on the mucosal surface epithelium using a semi-automatic imaging system described elsewhere (Weber et al. (1984) Science 224:294-297). We measured the Alcian blue/PAS-positive stained area and the total epithelial area and expressed the data as the percentage of the total area stained by Alcian blue-PAS. The analysis was performed with the public domain NIH Image program (developed at the U.S. National Institute of Health and available from the Internet by anonymous FTP from zippy.nimh.gov or on floppy disk from the National Technical Information Service, Springfield, Va., part number PB95-500195GEI).
Immunohistochemical localization of EGF-R in rat epithelium. The localization of EGF-R was examined using immunchistochemical staining with an antibody to EGF-R (Calbiochem, San Diego, Calif.) in frozen sections of rat trachea. After perfusion with 1% paraformaldehyde in PBS, tissues were placed in 4% paraformaldehyde in PBS for 1 h and then removed in 30% sucrose for cryoprotection overnight. Tracheas were embedded in O.C.T. compound (Sakura Finetek U.S.A., Inc., Torrance, Calif.) and frozen. Frozen sections (5 μm) were cut and placed on glass slides (Superfrost Plus, Fisher Scientific, Pittsburgh, Pa.). Immunostaining was performed similarly to the in vitro studies.

EGFR, sequence (P00533 25-1210): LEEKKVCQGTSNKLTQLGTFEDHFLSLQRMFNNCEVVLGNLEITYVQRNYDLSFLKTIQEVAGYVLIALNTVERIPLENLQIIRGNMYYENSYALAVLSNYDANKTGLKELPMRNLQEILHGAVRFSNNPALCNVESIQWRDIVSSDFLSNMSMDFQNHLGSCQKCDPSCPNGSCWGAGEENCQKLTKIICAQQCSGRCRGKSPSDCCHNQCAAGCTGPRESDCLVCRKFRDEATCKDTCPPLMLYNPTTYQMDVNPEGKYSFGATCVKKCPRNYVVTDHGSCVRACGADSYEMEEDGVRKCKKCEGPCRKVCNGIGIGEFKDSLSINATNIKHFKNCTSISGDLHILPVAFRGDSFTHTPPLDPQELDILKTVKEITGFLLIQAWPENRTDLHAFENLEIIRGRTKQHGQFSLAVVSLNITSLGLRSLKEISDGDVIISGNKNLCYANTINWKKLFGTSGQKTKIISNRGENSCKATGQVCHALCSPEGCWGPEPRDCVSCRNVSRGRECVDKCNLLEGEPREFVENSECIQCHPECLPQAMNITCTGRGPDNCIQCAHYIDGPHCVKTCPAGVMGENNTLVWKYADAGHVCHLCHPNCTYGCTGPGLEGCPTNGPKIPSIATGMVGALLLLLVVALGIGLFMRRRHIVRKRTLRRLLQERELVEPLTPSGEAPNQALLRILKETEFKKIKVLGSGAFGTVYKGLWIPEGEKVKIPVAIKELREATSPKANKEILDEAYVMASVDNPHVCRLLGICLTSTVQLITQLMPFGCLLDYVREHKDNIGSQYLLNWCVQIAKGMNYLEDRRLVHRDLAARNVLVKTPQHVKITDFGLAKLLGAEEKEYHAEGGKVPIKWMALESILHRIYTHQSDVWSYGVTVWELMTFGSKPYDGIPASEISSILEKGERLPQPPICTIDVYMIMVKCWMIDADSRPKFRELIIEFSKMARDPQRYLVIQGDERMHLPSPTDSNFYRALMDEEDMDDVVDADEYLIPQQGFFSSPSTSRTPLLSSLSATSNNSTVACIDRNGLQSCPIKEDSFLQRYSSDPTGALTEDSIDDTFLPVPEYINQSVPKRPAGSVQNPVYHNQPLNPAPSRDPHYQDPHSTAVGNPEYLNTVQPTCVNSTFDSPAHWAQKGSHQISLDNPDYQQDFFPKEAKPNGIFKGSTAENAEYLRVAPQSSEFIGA

Consider `OO` [H2O2, hydrogen peroxide], for which the “maximum response in MUC5AC synthesis relative to the response to TGFα” value in experiment [1] is “half”. Moreover, in experiment [1] (H2O2 200 μM, cigarette smoke solution), the “MUC5AC synthesis in NCI-H292 cells, stimulus alone” value is listed as “caused MUC5AC synthesis”. In experiment [2], the MUC5AC gene expression result is “up-regulated”. For the same compound, the EGF-R-specific tyrosine phosphorylation result in experiment [3] is given as “induced EGF-R-specific tyrosine phosphorylation”.
With “EGF: recombinant human epidermal growth factor (Genzyme)”, the “MUC5 gene expression on incubation with mediator” value in experiment [4] is given as “clearly expressed at 24 h”. Also, the “PAS-positive staining on incubation with mediator” value in experiment [5] is listed as “increased PAS-positive staining”. Also, the “epithelial production of mucous glycoconjugates” value in experiment [6] is reported as “had no effect”.
